# Results reported in ChEMBL document CHEMBL4507271, “Data for DCP probe BAY-707” (2021).
# What was measured:
# [1] = molecular target: Histamine H1 receptor (Homo sapiens) (UniProt P35367); conditions: Compound concentration 10.0 uM
# [2] = molecular target: 5-hydroxytryptamine receptor 3A (Homo sapiens) (UniProt P46098); conditions: Compound concentration 10.0 uM
# [3] = molecular target: 5-hydroxytryptamine receptor 7 (Homo sapiens) (UniProt P34969); conditions: Compound concentration 10.0 uM
# [4] = molecular target: Alpha-2C adrenergic receptor (Homo sapiens) (UniProt P18825); conditions: Compound concentration 10.0 uM
# [5] = molecular target: D(1A) dopamine receptor (Homo sapiens) (UniProt P21728); conditions: Compound concentration 10.0 uM
# [6] = molecular target: 5-hydroxytryptamine receptor 1D (Homo sapiens) (UniProt P28221); conditions: Compound concentration 10.0 uM
# [7] = molecular target: Sodium-dependent noradrenaline transporter (Homo sapiens) (UniProt P23975); conditions: Compound concentration 10.0 uM
# [8] = molecular target: Histamine H2 receptor (Homo sapiens) (UniProt P25021); conditions: Compound concentration 10.0 uM
# [9] = molecular target: Sigma non-opioid intracellular receptor 1 (Homo sapiens) (UniProt Q99720); conditions: Compound concentration 10.0 uM
# [10] = molecular target: Mu-type opioid receptor (Homo sapiens) (UniProt P35372); conditions: Compound concentration 10.0 uM
# [11] = molecular target: Sigma intracellular receptor 2 (Homo sapiens) (UniProt Q5BJF2); conditions: Compound concentration 10.0 uM
# [12] = molecular target: GABA-A receptor; anion channel; assay: GPCRScan assay: inhibition of GABAA/BZP; format: protein-complex assay, Rattus norvegicus; design: radioligand conc. used [nm] 0.6 – 4.0, parental cells brain tissue
# [13] = molecular target: 5-hydroxytryptamine receptor 2C (Homo sapiens) (UniProt P28335); conditions: Compound concentration 10.0 uM
# [14] = molecular target: Alpha-1A adrenergic receptor (Homo sapiens) (UniProt P35348); conditions: Compound concentration 10.0 uM
# [15] = molecular target: Alpha-2B adrenergic receptor (Homo sapiens) (UniProt P18089); conditions: Compound concentration 10.0 uM
# [16] = molecular target: Sodium-dependent dopamine transporter (Homo sapiens) (UniProt Q01959); conditions: Compound concentration 10.0 uM
# [17] = molecular target: D(4) dopamine receptor (Homo sapiens) (UniProt P21917); conditions: Compound concentration 10.0 uM
# [18] = molecular target: 5-hydroxytryptamine receptor 2B (Homo sapiens) (UniProt P41595); conditions: Compound concentration 10.0 uM
# [19] = molecular target: Alpha-2A adrenergic receptor (Homo sapiens) (UniProt P08913); conditions: Compound concentration 10.0 uM
# [20] = molecular target: Muscarinic acetylcholine receptor M5 (Homo sapiens) (UniProt P08912); conditions: Compound concentration 10.0 uM
# [21] = molecular target: Histamine H4 receptor (Homo sapiens) (UniProt Q9H3N8); conditions: Compound concentration 10.0 uM
# [22] = molecular target: Alpha-1D adrenergic receptor (Homo sapiens) (UniProt P25100); conditions: Compound concentration 10.0 uM
# [23] = molecular target: D(3) dopamine receptor (Homo sapiens) (UniProt P35462); conditions: Compound concentration 10.0 uM
# [24] = molecular target: 5-hydroxytryptamine receptor 1A (Homo sapiens, UniProt P08908); assay: GPCRScan assay: inhibition of 5-HT1A; design: radioligand conc. used [nm] 0.5 – 1.0, parental cells stable CHO
# [25] = molecular target: 5-hydroxytryptamine receptor 2A (Homo sapiens) (UniProt P28223); conditions: Compound concentration 10.0 uM
# [26] = molecular target: Delta-type opioid receptor (Homo sapiens) (UniProt P41143); conditions: Compound concentration 10.0 uM
# [27] = molecular target: T1, GABA-A receptor; anion channel (Rattus norvegicus) (UniProt O09028+P15431+P18506+P18508+P19969+P20236+P23574+P23576+P28471+P28473+P30191+P62813+P63079+P63138+Q91ZM7+Q9ES14); conditions: Compound concentration 10.0 uM
# [28] = molecular target: Alpha-1B adrenergic receptor (Homo sapiens) (UniProt P35368); conditions: Compound concentration 10.0 uM
# [29] = molecular target: Beta-2 adrenergic receptor (Homo sapiens) (UniProt P07550); conditions: Compound concentration 10.0 uM
# [30] = molecular target: T1, GABA-A receptor; anion channel (Rattus norvegicus); conditions: Compound concentration 10.0 uM; remark: listed apart in the source
# [31] = molecular target: 5-hydroxytryptamine receptor 1A (Homo sapiens) (UniProt P08908); conditions: Compound concentration 10.0 uM
# [32] = molecular target: 5-hydroxytryptamine receptor 5A (Homo sapiens) (UniProt P47898); conditions: Compound concentration 10.0 uM
# [33] = molecular target: Histamine H3 receptor (Homo sapiens) (UniProt Q9Y5N1); conditions: Compound concentration 10.0 uM
# [34] = molecular target: 5-hydroxytryptamine receptor 6 (Homo sapiens) (UniProt P50406); conditions: Compound concentration 10.0 uM
# [35] = molecular target: D(2) dopamine receptor (Homo sapiens) (UniProt P14416); conditions: Compound concentration 10.0 uM
# [36] = molecular target: Muscarinic acetylcholine receptor M1 (Homo sapiens) (UniProt P11229); conditions: Compound concentration 10.0 uM
# [37] = molecular target: 5-hydroxytryptamine receptor 1B (Homo sapiens) (UniProt P28222); conditions: Compound concentration 10.0 uM
# [38] = molecular target: Muscarinic acetylcholine receptor M2 (Homo sapiens) (UniProt P08172); conditions: Compound concentration 10.0 uM
# [39] = molecular target: Kappa-type opioid receptor (Homo sapiens) (UniProt P41145); conditions: Compound concentration 10.0 uM
# Rattus norvegicus = organism: Rattus norvegicus; conditions: Compound concentration 10.0 uM
# [40] = molecular target: 5-hydroxytryptamine receptor 1E (Homo sapiens) (UniProt P28566); conditions: Compound concentration 10.0 uM
# [41] = molecular target: D(1B) dopamine receptor (Homo sapiens) (UniProt P21918); conditions: Compound concentration 10.0 uM
# [42] = molecular target: Beta-3 adrenergic receptor (Homo sapiens) (UniProt P13945); conditions: Compound concentration 10.0 uM
# [43] = molecular target: Muscarinic acetylcholine receptor M4 (Homo sapiens) (UniProt P08173); conditions: Compound concentration 10.0 uM
# D(4) dopamine receptor = D(4) dopamine receptor (Homo sapiens, UniProt P21917); assay: GPCRScan assay: inhibition of D4; design: radioligand conc. used [nm] 0.6 – 1.7, parental cells Stable HEK
# [44] = molecular target: Oxidized purine nucleoside triphosphate hydrolase (Homo sapiens, UniProt P36639); assay: PPiLight Biochemical Assay
# [45] = molecular target: Muscarinic acetylcholine receptor M3 (Homo sapiens) (UniProt P20309); conditions: Compound concentration 10.0 uM
# Chain of Muscarinic acetylcholine receptor M5 (Homo sapiens) (P08912 whole entry): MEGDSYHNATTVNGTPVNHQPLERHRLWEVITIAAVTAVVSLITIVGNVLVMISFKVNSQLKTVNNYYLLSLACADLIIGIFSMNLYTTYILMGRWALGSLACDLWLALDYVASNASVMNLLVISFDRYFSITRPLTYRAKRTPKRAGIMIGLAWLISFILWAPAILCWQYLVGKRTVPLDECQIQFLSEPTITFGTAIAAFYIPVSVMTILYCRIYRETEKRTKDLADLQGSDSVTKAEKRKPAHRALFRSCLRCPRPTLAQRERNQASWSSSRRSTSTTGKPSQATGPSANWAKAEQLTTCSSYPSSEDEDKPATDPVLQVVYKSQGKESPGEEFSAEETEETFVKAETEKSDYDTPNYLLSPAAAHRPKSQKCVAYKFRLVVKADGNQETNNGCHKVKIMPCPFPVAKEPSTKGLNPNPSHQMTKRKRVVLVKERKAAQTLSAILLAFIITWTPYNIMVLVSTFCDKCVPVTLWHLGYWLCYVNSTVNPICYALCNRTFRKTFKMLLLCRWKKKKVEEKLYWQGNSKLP
# Chain of Sigma non-opioid intracellular receptor 1 (Homo sapiens) (Q99720 whole entry): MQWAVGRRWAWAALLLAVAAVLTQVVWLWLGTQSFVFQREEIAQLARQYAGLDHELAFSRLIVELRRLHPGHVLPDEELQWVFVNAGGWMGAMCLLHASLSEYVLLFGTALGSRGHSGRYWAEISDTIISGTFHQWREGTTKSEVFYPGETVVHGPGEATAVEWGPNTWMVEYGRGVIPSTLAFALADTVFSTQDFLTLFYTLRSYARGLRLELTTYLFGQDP
# Chain of Sigma intracellular receptor 2 (Homo sapiens) (Q5BJF2 whole entry): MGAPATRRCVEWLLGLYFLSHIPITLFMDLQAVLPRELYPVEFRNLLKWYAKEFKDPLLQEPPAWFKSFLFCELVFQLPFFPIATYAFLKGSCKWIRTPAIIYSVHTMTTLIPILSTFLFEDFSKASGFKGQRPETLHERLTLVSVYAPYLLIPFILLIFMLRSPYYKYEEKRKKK
# Chain of Mu-type opioid receptor (Homo sapiens) (P35372 whole entry): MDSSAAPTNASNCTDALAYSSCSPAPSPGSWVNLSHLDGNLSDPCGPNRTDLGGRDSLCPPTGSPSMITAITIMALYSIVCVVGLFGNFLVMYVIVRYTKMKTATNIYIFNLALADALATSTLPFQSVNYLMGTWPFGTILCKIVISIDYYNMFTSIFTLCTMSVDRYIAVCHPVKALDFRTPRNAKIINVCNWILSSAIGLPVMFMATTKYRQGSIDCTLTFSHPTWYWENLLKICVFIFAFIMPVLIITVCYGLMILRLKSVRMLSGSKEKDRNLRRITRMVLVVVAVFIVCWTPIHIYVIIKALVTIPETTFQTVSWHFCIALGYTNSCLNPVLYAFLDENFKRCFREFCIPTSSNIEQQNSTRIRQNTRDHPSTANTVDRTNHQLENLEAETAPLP
# Chain of 5-hydroxytryptamine receptor 1E (Homo sapiens) (P28566 whole entry): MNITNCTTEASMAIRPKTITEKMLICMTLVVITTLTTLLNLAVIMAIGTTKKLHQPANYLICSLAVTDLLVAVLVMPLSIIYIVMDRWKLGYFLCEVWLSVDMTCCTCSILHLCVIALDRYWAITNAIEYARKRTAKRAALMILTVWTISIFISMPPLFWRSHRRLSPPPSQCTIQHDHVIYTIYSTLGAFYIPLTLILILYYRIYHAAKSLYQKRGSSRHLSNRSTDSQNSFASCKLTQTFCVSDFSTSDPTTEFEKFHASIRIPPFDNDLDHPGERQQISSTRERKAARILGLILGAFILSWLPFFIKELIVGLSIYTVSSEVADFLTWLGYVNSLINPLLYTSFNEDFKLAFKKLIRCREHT
# Chain of Muscarinic acetylcholine receptor M1 (Homo sapiens) (P11229 whole entry): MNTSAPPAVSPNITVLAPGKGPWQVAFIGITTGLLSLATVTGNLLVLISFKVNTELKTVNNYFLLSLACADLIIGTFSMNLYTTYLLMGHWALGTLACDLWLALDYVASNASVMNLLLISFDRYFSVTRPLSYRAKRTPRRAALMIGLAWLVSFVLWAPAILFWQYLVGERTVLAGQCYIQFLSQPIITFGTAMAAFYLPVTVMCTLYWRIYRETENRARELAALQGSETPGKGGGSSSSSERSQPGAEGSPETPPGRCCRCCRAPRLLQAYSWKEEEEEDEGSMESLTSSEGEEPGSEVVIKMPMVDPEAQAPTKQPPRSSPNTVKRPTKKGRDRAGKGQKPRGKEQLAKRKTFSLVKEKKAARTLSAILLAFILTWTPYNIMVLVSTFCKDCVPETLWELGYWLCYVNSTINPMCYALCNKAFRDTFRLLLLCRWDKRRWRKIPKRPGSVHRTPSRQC
# Chain of Alpha-2B adrenergic receptor (Homo sapiens) (P18089 whole entry): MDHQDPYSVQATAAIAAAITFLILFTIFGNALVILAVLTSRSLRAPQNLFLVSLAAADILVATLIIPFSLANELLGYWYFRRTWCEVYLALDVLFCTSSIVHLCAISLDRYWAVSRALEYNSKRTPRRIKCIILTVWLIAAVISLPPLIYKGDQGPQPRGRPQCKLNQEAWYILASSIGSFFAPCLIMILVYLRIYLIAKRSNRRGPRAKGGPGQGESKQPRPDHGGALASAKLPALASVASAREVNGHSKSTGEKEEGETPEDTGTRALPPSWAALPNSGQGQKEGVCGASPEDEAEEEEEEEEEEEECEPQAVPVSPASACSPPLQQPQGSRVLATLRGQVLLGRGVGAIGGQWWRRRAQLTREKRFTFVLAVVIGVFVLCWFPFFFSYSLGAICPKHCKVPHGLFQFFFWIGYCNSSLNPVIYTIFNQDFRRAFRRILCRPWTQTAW
# Chain of 5-hydroxytryptamine receptor 2A (Homo sapiens) (P28223 whole entry): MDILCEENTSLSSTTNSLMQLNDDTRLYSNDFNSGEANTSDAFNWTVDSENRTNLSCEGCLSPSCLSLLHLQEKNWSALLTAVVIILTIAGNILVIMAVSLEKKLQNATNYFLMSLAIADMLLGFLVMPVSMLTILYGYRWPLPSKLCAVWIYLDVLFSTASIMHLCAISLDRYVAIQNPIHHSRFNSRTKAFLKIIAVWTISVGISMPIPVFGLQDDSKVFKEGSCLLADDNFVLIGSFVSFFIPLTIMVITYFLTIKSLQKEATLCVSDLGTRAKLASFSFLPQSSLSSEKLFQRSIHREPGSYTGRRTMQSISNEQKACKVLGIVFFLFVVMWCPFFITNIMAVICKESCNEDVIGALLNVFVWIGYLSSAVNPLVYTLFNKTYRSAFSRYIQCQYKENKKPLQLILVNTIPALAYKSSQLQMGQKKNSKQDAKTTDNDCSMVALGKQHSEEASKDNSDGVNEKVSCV
# Chain of Muscarinic acetylcholine receptor M2 (Homo sapiens) (P08172 whole entry): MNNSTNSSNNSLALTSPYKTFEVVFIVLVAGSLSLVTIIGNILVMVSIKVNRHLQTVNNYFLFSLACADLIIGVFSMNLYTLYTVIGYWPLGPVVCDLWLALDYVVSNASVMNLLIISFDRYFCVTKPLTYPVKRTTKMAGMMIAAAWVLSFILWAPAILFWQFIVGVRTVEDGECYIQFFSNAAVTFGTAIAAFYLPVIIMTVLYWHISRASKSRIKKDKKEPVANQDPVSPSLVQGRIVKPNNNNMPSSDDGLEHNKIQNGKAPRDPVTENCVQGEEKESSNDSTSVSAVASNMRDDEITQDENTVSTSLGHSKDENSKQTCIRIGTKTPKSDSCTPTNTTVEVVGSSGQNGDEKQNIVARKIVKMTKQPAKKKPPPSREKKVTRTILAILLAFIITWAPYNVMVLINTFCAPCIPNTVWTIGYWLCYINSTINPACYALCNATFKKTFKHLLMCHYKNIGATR
# Chain of 5-hydroxytryptamine receptor 2B (Homo sapiens) (P41595 whole entry): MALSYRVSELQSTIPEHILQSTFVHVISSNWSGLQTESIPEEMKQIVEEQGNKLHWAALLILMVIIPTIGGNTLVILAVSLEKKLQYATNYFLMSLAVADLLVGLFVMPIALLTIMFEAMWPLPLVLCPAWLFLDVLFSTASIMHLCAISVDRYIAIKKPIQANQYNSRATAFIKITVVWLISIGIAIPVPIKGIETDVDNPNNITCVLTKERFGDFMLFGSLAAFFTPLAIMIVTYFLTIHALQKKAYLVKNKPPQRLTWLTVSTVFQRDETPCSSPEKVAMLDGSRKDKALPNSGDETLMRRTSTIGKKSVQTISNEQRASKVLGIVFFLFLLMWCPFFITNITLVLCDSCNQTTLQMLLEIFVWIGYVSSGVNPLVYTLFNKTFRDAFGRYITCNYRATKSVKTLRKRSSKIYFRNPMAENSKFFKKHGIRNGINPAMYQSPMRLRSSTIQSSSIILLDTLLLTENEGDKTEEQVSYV
# Chain of Alpha-1B adrenergic receptor (Homo sapiens) (P35368 whole entry): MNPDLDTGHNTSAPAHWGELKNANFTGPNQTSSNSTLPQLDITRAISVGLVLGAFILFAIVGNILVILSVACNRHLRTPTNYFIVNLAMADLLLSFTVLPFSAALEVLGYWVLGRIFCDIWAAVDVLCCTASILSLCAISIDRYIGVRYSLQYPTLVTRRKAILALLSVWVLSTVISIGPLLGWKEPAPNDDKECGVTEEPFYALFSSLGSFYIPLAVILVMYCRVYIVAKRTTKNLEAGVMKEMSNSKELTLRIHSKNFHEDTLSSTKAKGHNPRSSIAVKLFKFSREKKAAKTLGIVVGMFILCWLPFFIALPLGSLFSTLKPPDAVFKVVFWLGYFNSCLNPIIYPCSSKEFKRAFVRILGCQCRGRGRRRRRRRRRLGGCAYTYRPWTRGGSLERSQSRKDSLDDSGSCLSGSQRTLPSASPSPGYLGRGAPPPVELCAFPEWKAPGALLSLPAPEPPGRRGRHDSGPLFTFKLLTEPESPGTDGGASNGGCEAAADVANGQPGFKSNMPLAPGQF
# Chain of 5-hydroxytryptamine receptor 1D (Homo sapiens) (P28221 whole entry): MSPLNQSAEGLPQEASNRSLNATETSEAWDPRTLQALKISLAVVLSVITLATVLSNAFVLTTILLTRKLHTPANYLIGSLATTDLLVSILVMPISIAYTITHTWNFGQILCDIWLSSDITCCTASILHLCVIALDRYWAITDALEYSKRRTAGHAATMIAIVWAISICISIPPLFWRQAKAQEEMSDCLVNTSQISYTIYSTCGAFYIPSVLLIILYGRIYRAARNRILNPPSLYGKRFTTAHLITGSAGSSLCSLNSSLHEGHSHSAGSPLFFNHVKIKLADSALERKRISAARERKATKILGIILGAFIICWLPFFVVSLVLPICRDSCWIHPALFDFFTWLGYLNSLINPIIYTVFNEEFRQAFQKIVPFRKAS
compound,measurement,setting,value
CCNC(=O)c1cc2c(N3CCOC[C@@H]3C)ccnc2[nH]1,inhibition,[1],4.94%
same,inhibition,[2],-1.37%
same,inhibition,[3],-4.45%
same,inhibition,[4],3.16%
same,inhibition,[5],1.92%
same,inhibition,[6],-7.55%
same,inhibition,[7],40.2%
same,inhibition,[8],1.31%
same,inhibition,[9],24.3%
same,inhibition,[10],24.8%
same,inhibition,[11],34.6%
same,Ki,[12],1530 nM
same,inhibition,[13],-4.02%
same,inhibition,[14],1.88%
same,inhibition,[15],34.4%
same,inhibition,[16],25.5%
same,inhibition,[17],-3.84%
same,inhibition,[18],47.1%
same,inhibition,[19],18.1%
same,inhibition,[20],-4.95%
same,inhibition,[21],0.0286%
same,inhibition,[22],8.58%
same,inhibition,[23],-7.82%
same,Ki,[24],10000 nM
same,inhibition,[25],-7.89%
same,inhibition,[26],-0.04%
same,inhibition,[27],57.3%
same,inhibition,[28],-2.4%
same,inhibition,[29],-6.09%
same,inhibition,[30],28.2%
same,inhibition,[31],69.8%
same,inhibition,[32],-8.05%
same,inhibition,[33],40.5%
same,inhibition,[34],-8.52%
same,inhibition,[35],12.3%
same,inhibition,[36],21.7%
same,inhibition,[37],-1.66%
same,inhibition,[38],-1.26%
same,inhibition,[39],13.1%
same,inhibition,Rattus norvegicus,30.1%
same,inhibition,[40],10.6%
same,inhibition,[41],34.3%
same,inhibition,[42],14.3%
CCNC(=O)c1cc2c(N3CCOC[C@@H]3C)ccnc2n1C,inhibition,[1],26%
same,inhibition,[2],18.6%
same,inhibition,[3],-1.21%
same,inhibition,[4],-1.28%
same,inhibition,[5],14.2%
same,inhibition,[6],-0.31%
same,inhibition,[7],5.35%
same,inhibition,[8],-3.91%
same,inhibition,[9],24.5%
same,inhibition,[10],0.08%
same,inhibition,[11],30.4%
same,Ki,[12],224 nM
same,pKi,[12],6.72
same,inhibition,[13],46.2%
same,inhibition,[14],3.94%
same,inhibition,[15],-2.44%
same,inhibition,[17],77.6%
same,inhibition,[18],2.79%
same,inhibition,[19],16.9%
same,inhibition,[20],-0.9%
same,inhibition,[43],5.75%
same,inhibition,[21],5.51%
same,inhibition,[22],-8.1%
same,inhibition,[23],12.1%
same,inhibition,[25],-1.68%
same,inhibition,[26],2.73%
same,inhibition,[27],84.2%
same,inhibition,[28],5.71%
same,inhibition,[29],27.3%
same,inhibition,[30],-1.39%
same,inhibition,[31],-1.88%
same,inhibition,[33],-6.16%
same,inhibition,[34],31.9%
same,Ki,D(4) dopamine receptor; read-out: Ki,736 nM
same,Ki,D(4) dopamine receptor; read-out: pKi (converted),708 nM
same,inhibition,[35],-1.89%
same,inhibition,[36],11.9%
same,inhibition,[37],-8.46%
same,inhibition,[38],7.19%
same,inhibition,[39],14.6%
same,inhibition,Rattus norvegicus,17.2%
same,inhibition,[40],9.36%
same,IC50,[44],> 20000 nM (not active)
same,inhibition,[45],38%
same,inhibition,[42],-9.19%
